Measurements taken from ChEMBL document CHEMBL1201862, “PubChem BioAssay data set” (2004).
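In this assay, cells in 96-well plates receive the compound at five concentrations for 48 hours. Endpoints are linearly interpolated between the surrounding concentrations. GI50 marks 50% less growth.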 Activity calls are given as the source filed them. Rule as the data show it: active = GI50 up to about 1.1 µM and inactive = higher.

Columns and labels:
Test in all cases: NCI anticancer screen, dose series, 48 h
SW-620 = system: SW-620
NCI-H226 = system: NCI-H226
TK-10 = system: TK-10
LOX IMVI = system: LOX IMVI
786-0 = system: 786-0
SN12C = system: SN12C
OVCAR-8 = system: OVCAR-8
DMS-114 = system: DMS-114
M14 = system: M14
RXF 393 = system: RXF 393
SK-MEL-28 = system: SK-MEL-28
HCT-116 = system: HCT-116
HCT-15 = system: HCT-15
HT-29 = system: HT-29
SR = system: SR
OVCAR-3 = system: OVCAR-3
HCC 2998 = system: HCC 2998
A498 = system: A498
MCF7 = system: MCF7
SNB-78 = system: SNB-78

Structure (SMILES)	GI50 (SW-620)	GI50 (NCI-H226)	GI50 (TK-10)	GI50 (LOX IMVI)	GI50 (786-0)	GI50 (SN12C)	GI50 (OVCAR-8)	GI50 (DMS-114)	GI50 (M14)	GI50 (RXF 393)	GI50 (SK-MEL-28)	GI50 (HCT-116)	GI50 (HCT-15)	GI50 (HT-29)	GI50 (SR)	GI50 (OVCAR-3)	GI50 (HCC 2998)	GI50 (A498)	GI50 (MCF7)	GI50 (SNB-78)
[N-]=[N+]=NC1(Cc2ccccc2)C(=O)c2cccc3c2N(CCC3)C1=O (configuration not stated)	> 100 µM (inactive)	> 100 µM (inactive)	> 100 µM (inactive)	> 100 µM (inactive)	> 100 µM (inactive)	> 100 µM (inactive)	> 100 µM (inactive)	> 100 µM (inactive)	> 100 µM (inactive)	> 100 µM (inactive)	> 100 µM (inactive)	> 100 µM (inactive)	> 100 µM	> 100 µM (inactive)	> 100 µM (inactive)	–	–	–	–	–
Cn1cccc1/C=C/c1cc(Br)c(/C=C/c2cccn2C)cc1Br	20.9 µM (inactive)	12.3 µM (inactive)	22.5 µM (inactive)	18.3 µM (inactive)	6.12 µM (inactive)	21 µM (inactive)	> 10 µM (inactive)	11.6 µM (inactive)	19 µM (inactive)	12.6 µM (inactive)	15.5 µM (inactive)	16.3 µM (inactive)	8.75 µM	18.6 µM (inactive)	–	16.1 µM (inactive)	2.62 µM (inactive)	21 µM (inactive)	–	–
C=CC(O)C#Cc1cnc(OC)nc1OC (configuration not stated)	75.9 µM (inactive)	30.1 µM (inactive)	> 100 µM (inactive)	> 100 µM (inactive)	38.6 µM (inactive)	> 100 µM (inactive)	> 100 µM (inactive)	–	> 100 µM (inactive)	> 100 µM (inactive)	> 100 µM (inactive)	82.8 µM (inactive)	> 100 µM	> 100 µM (inactive)	> 100 µM (inactive)	> 100 µM (inactive)	> 100 µM (inactive)	16.3 µM (inactive)	14.5 µM (inactive)	–
O=C(O)C[C@H]1CCCCC12CCOC2=O (some centres not stated)	> 100 µM (inactive)	> 100 µM (inactive)	> 100 µM (inactive)	> 100 µM (inactive)	> 100 µM (inactive)	> 100 µM (inactive)	> 100 µM (inactive)	> 100 µM (inactive)	> 100 µM (inactive)	> 100 µM (inactive)	> 100 µM (inactive)	> 100 µM (inactive)	–	> 100 µM (inactive)	> 100 µM (inactive)	> 100 µM (inactive)	> 100 µM (inactive)	–	–	> 100 µM (inactive)
CCOC(=O)/C(C#N)=C(O)/C(=C/c1ccccc1Cl)NC(=O)c1ccccc1	18.8 µM (inactive)	> 100 µM (inactive)	> 100 µM (inactive)	–	> 100 µM (inactive)	> 100 µM (inactive)	> 100 µM (inactive)	> 100 µM (inactive)	> 100 µM (inactive)	–	> 100 µM (inactive)	30.3 µM (inactive)	27.7 µM	> 100 µM (inactive)	–	> 100 µM (inactive)	> 100 µM (inactive)	> 100 µM (inactive)	–	> 100 µM (inactive)
N#CCc1c(-c2ccccc2)n(S(=O)(=O)c2ccccc2)c2ccccc12	> 100 µM (inactive)	> 100 µM (inactive)	> 100 µM (inactive)	–	> 100 µM (inactive)	–	> 100 µM (inactive)	64.9 µM (inactive)	> 100 µM (inactive)	–	> 100 µM (inactive)	37.1 µM (inactive)	82.8 µM	> 100 µM (inactive)	12.2 µM (inactive)	> 100 µM (inactive)	> 100 µM (inactive)	–	–	–
Cc1cc2c(cc1C)[n+]([O-])c(C(=O)C/C(=N/OCCCc1ccccc1)C(=O)Nc1cc(Cl)ccc1Cl)c(C)[n+]2[O-]	> 100 µM (inactive)	> 100 µM (inactive)	> 100 µM (inactive)	> 100 µM (inactive)	> 100 µM (inactive)	> 100 µM (inactive)	> 100 µM (inactive)	–	> 100 µM (inactive)	> 100 µM (inactive)	> 100 µM (inactive)	> 100 µM (inactive)	> 100 µM	> 100 µM (inactive)	–	> 100 µM (inactive)	> 100 µM (inactive)	> 100 µM (inactive)	–	> 100 µM (inactive)
Cc1sccc1C(=S)Nc1ccc(Cl)c(/C=N/OC(C)(C)C)c1	37.9 µM (inactive)	13.9 µM (inactive)	19.1 µM (inactive)	26.6 µM (inactive)	21.1 µM (inactive)	12.5 µM (inactive)	17.1 µM (inactive)	–	17.9 µM (inactive)	17.2 µM (inactive)	26.6 µM (inactive)	14.1 µM (inactive)	15 µM	14.3 µM (inactive)	17.6 µM (inactive)	13.9 µM (inactive)	16.4 µM (inactive)	23.8 µM (inactive)	11.8 µM (inactive)	–
